Tests used:
[1] = test system: subjects with mild-to-moderate Alzheimer's disease; assay: Phase 2a Clinical Study A: ADAS-cog (11-item) total score; assay type: in vivo, human
Description: (§1) A Phase 2a proof-of-concept (POC) study in subjects with mild-to-moderate dementia of Alzheimer type was conducted. The study was a randomized, double-blind, placebo- and active-controlled, multicenter study designed to evaluate the efficacy and safety of Compound A (ABT-126) in subjects diagnosed with mild-to-moderate Alzheimer's disease, defined as meeting National Institute of Neurological and Communicative Disorders and Stroke/Alzheimer's Disease and Related Disorders Association (NINCDS/ADRDA) criteria for probable AD. […] Subjects were randomized in an equal ratio to one of four treatment groups (placebo, 5 mg Compound A, 25 mg Compound A, or donepezil) for a 12-week treatment period. The primary efficacy measure was the Alzheimer's Disease Assessment Scale—cognitive subscale (ADAS-Cog). Subjects were generally in good health and any chronic medical conditions were stable during the time of screening. Subjects were not taking other medication for Alzheimer's disease.
(§2) The study was a Phase 2, randomized, double-blind, placebo- and active-controlled, multicenter study designed to evaluate the dose-response relationship and safety of two doses of Compound A in subjects diagnosed with mild to moderate AD, defined as meeting NINCDS/ADRDA criteria for probable AD.
(§3) The study consisted of a Screening Period of up to 28 days, a 12-week treatment period, and a post-treatment period. The screening period consisted of three visits: Screening Visit 1, Screening Visit 2, and Day −1. Upon completion of Day −1 procedures, eligible subjects were randomized through an Interactive Voice Response/Interactive Web-Based (IVR/IWB) system. Subjects were randomized in an equal ratio to one of four treatment groups (placebo, 5 mg Compound A, 25 mg Compound A, or donepezil).
(§4) Each subject was instructed to take study drug once-daily in the morning for 12 weeks. Subjects randomized to donepezil took 5 mg donepezil QD for the first 4 weeks and began 10 mg donepezil QD at Week 4 through the remainder of the study. The subject and investigator were blinded to the treatment assignment throughout the study.
Subjects completed 4 visits during the treatment period at Week 2, Week 4, Week 8 and Week 12. Subjects returned to the study site for a follow-up visit approximately 2 weeks after the Week 12 or premature discontinuation visit for a safety evaluation. In addition, study site personnel contacted each subject's caregiver by telephone approximately 30 days after the subject's last dose of study drug to ascertain the subject's safety status.
(§5) The primary efficacy measure was the Alzheimer's Disease Assessment Scale-cognitive subscale (ADAS-cog). The ADAS-cog was designed to assess the cognitive impairments most common in AD. The ADAS-cog is a subscale of the ADAS, which focuses on cognitive functioning and memory. Two versions were used in the study: an 11-item version and an expanded (13-item) version. The 11-item version of the ADAS-cog was the primary endpoint measure in this study. ADAS-Cog (13-item) was administered throughout the study and the primary efficacy variable was considered the change from baseline to final evaluation on the ADAS-cog total score (11-item).
The 11-item ADAS-cog includes the following tests: Word Recall, Commands, Constructional Praxis, Naming Objects and Fingers, Ideational Praxis, Orientation, Word Recognition, Remembering Test Instructions, Comprehension of Spoken Language, Spoken Language Ability, and Word Finding Difficulty. The total score of the 11-item ADAS-cog ranges from 0 to 70, with a higher score representing greater impairment.
The primary efficacy variable was the change from baseline to the final observation on the ADAS-cog (11-item) total score. The primary efficacy analysis was carried out using an ANCOVA model with treatment and study site as the main effects and baseline score as the covariate. […]

[2] = test system: subjects with mild-to-moderate Alzheimer's disease; assay: Phase 2a Clinical Study A: ADAS-cog (13-item) total score; assay type: in vivo, human
Description: as §1, §2, §3, §4, §5
The 13-item ADAS-cog is comprised of the 11-item ADAS-cog with two additional items (Delayed Word Recall and a Number Cancellation Test) that are designed to assess attention and concentration. The Delayed Word Recall Test (range from 0 to 10) was an addition to the Word Recall Test to enhance sensitivity of the instrument in assessing cognition functioning on patients with mild AD. The Number Cancellation Test (range from 0 to 5) was reliable and sensitive to a broad range of dementia severity, and was recommended as a useful addition to the 11-item ADAS-cog. The total score of the 13-item ADAS-cog ranges from 0 to 85, with a higher score representing greater impairment. The ADAS-cog (13-item) was administered by a certified rater at Screening Visit 1, Screening Visit 2, and Day-1, as well as Weeks 4, 8, and 12 during the study.

[3] = donepezil 5 mg QD first 4 weeks then 10 mg QD, ANCOVA, baseline to final evaluation
[4] = donepezil 5 mg QD first 4 weeks then 10 mg QD, Change to Week 8
[5] = donepezil 5 mg QD first 4 weeks then 10 mg QD, Change to Week 12
[6] = donepezil 5 mg QD first 4 weeks then 10 mg QD, MMRM, Week 8
[7] = donepezil 5 mg QD first 4 weeks then 10 mg QD, MMRM, Week 12
[8] = donepezil 5 mg QD first 4 weeks then 10 mg QD, final evaluation, 12-week treatment
[9] = donepezil 5 mg QD, Change to Week 4
[10] = donepezil 5 mg QD, MMRM, Week 4

SMILES: COc1cc2c(cc1OC)C(=O)C(CC1CCN(Cc3ccccc3)CC1)C2 (stereo not shown) [Donepezil, donepezil, reference compound]
- ADAS-cog (11-Item) Total Score Difference From Placebo LS Mean (SE) of Difference [1, 3]: −1.43
- ADAS-cog (11-Item) Total Score LS Mean (SE) of Change [1, 3]: −2.11 (0.65)
- ADAS-cog (11-Item) Total Score Observed Mean (SD) change [1, 4]: −1.69 (4.96)
- ADAS-cog (11-Item) Total Score Observed Mean (SD) change [1, 5]: −2.91 (4.76)
- ADAS-cog (11-Item) Total Score Difference From Placebo LS Mean (SE) of Difference [1, 6]: −0.70 (0.83)
- ADAS-cog (11-Item) Total Score LS Mean (SE) of Change from Baseline [1, 6]: −1.26 (0.59)
- ADAS-cog (11-Item) Total Score Difference From Placebo LS Mean (SE) of Difference [1, 7]: −1.57 (0.91)
- ADAS-cog (11-Item) Total Score LS Mean (SE) of Change from Baseline [1, 7]: −2.40 (0.65)
- ADAS-cog (11-Item) Total Score Observed Mean (SD) Final [1, 8]: 23.21 (11.53)
- ADAS-cog (11-Item) Total Score Observed Mean (SD) change [1, 9]: −1.04 (3.53)
- ADAS-cog (11-Item) Total Score Difference From Placebo LS Mean (SE) of Difference [1, 10]: −0.68 (0.65)
- ADAS-cog (11-Item) Total Score LS Mean (SE) of Change from Baseline [1, 10]: −0.78 (0.47)
- cognition relative to placebo, ADAS-cog (11-item) MMRM (in words) ([1]; donepezil treatment group): cognitive improvement relative to placebo
- ADAS-cog (13-Item) Total Score Difference From Placebo LS Mean (SE) of Difference [2, 3]: −2.49 (1.04)
- ADAS-cog (13-Item) Total Score LS Mean (SE) of Change [2, 3]: −3.27 (0.74)
- ADAS-cog (13-Item) Total Score Observed Mean (SD) change [2, 4]: −2.66 (5.48)
- ADAS-cog (13-Item) Total Score Observed Mean (SD) change [2, 5]: −4.17 (4.94)
- ADAS-cog (13-Item) Total Score Difference From Placebo LS Mean (SE) of Difference [2, 6]: −1.85 (0.98)
- ADAS-cog (13-Item) Total Score LS Mean (SE) of Change from Baseline [2, 6]: −2.20 (0.70)
- ADAS-cog (13-Item) Total Score Difference From Placebo LS Mean (SE) of Difference [2, 7]: −2.48 (1.06)
- ADAS-cog (13-Item) Total Score LS Mean (SE) of Change from Baseline [2, 7]: −3.61 (0.76)
- ADAS-cog (13-Item) Total Score Observed Mean (SD) Final [2, 8]: 33.90 (13.37)
- ADAS-cog (13-Item) Total Score Observed Mean (SD) change [2, 9]: −1.84 (3.94)
- ADAS-cog (13-Item) Total Score Difference From Placebo LS Mean (SE) of Difference [2, 10]: −1.53 (0.74)
- ADAS-cog (13-Item) Total Score LS Mean (SE) of Change from Baseline [2, 10]: −1.53 (0.53)

— patent US8802693B1, “Azaadamantane derivatives and methods of use” (priority 2011, dated 2014)
